According to publication PMC4552634, “A New Set of Chemical Starting Points with Plasmodium falciparum Transmission-Blocking Potential for Antimalarial Drug Discovery” (PLoS ONE, 2015):
Read-outs that look alike come from different tables or passages of the source.

Key:
[1] = system: P. falciparum stage V gametocytes; assay: Gametocytocidal ATP bioluminescence assay (single point 5 μM and 1 μM, dose-response); format: cell-based, Plasmodium falciparum; conditions: for Ratio IC50 HepG2/IC50 P. falciparum: IC50 HepG2 divided by IC50 P. falciparum gametocytes
Procedure: Purified stage IV-V gametocytes were obtained as previously described [10]. Single point ATP bioluminescence assay and dose–response of positive hits was determined in accordance with the previously published protocol [10].

[2] = system: HepG2 cells; assay: Cytotoxicity in HepG2 cells (intracellular ATP, ATPlite, 48 h); format: cell-based, human; conditions: HepG2 cells; IC50 per ratio column head; unit inferred
[3] = system: P. falciparum asexual stages; conditions: asexual stages; TCAMS data; read-out: IC50 asexual; cited from earlier work
[4] = P. falciparum gametocytes, average, read-out: IC50 Pf Gametocytes average, IC50 (µM) average
[5] = sexual stages (gametocytes), dose-response, read-out: IC50 sexual

Compound | Ratio IC50 HepG2/IC50 P. falciparum [1] | IC50 [1, 4] [µM] | IC50 [1, 5] [µM] | IC50 [2] [nM] | IC50 [3] [nM]
COc1ccc(CCNCCCCCCNCCc2ccc(-c3ccccc3)cc2)cc1OC [TCMDC-131267] | 19 | 0.17 | 0.173 | 3250 | 958
CN(C)CCCOc1ccc(CN2CCC(c3c[nH]c4ccc(NCC5CCCCC5)cc34)CC2)cc1 [TCMDC-140737] | 14 | 0.5 |  | 6800 | 678
FC(F)(F)COc1ccc2ccccc2c1CNCCCCCCNCc1c(OCC(F)(F)F)ccc2ccccc12 [TCMDC-137816] | 8 | 0.37 |  | 3040 | 352
COc1ccc2c(c1CCNCCCCNCCc1c(OC)ccc3c1CCCC3)CCCC2 [TCMDC-137324] | 5 | 0.15 |  | 750 | 376
CCCCCCCN1CC[C@@H](CCCc2ccnc3ccc(OCC4CCCNC4)cc23)[C@@H](CC)C1 (stereo partly drawn) [TCMDC-139816] | 14 | 0.3 |  | 4180 | 625
CCCCOc1ccc(C(=O)C(CCC(CNC(C)(C)C)C(=O)c2ccc(OCCCC)cc2)CNC(C)(C)C)cc1 (stereo not drawn) [TCMDC-124120] | 10 | 0.3 |  | 3100 | 1020
O=C(NCCCCN1CCC(c2c[nH]c3ccc(-c4ccccc4)cc23)CC1)c1ccc(-c2ccccc2)cc1 [TCMDC-139064] | 5 | 1.83 |  | 9400 | 985
CCCCOc1cc(OC)c2ccccc2c1CCNCCCCNCCc1c(OCCCC)cc(OC)c2ccccc12 [TCMDC-137845] | 6 | 0.5 |  | 3000 | 1050
CN(CCCCN)Cc1ccc(-c2ccc(Cl)cc2)cc1 [TCMDC-140123] | 10 | 0.41 | 0.413 | 3990 | 882
O=C(NCCc1ccccc1)N(Cc1cccc(-c2ccc(CNC3CCCC3)cc2)c1)C1CCN(Cc2ccccc2)CC1 [TCMDC-140618] | 5.66 | 1.31 |  | 7420 | 404
CC(C)CNCc1cccc(-c2ccccc2CN(C(=O)NCCc2ccccc2)C2CCN(Cc3ccccc3)CC2)c1 [TCMDC-140608] | <1 | > 10 |  | 6600 | 1170
CCN(CC)CCCNc1ncc2c(-c3ccc(NC(=O)Nc4cc(C(F)(F)F)ccc4F)cc3)nn(C)c2n1 [TCMDC-141583] | 2.73 | 3.48 |  | 9500 | 220
CCc1c(CCNCCCCCCNCCc2ccc(Br)cc2)ccc(OC)c1OC [TCMDC-132045] | 15 | 0.22 | 0.215 | 3200 | 232
C=CCC1OC(=O)c2cc(OC)cc(OC)c21 (stereo not drawn) [TCMDC-138677] | <2.6 | 0.6 |  | < 1560 | 343
Cc1nc(-c2cccc(Nc3ccnc4cc(-c5nccs5)ccc34)c2)no1 [TCMDC-138334] | 25 | 0.3 |  | 7620 | 322
CCOc1cc(CNCCCCCCNCc2cc(OCC)c(OCC)c3ccccc23)c2ccccc2c1OCC [TCMDC-137939] | 3.62 | 0.75 | 0.745 | 2700 | 284
C=C(C)Cn1cc(C2CCN(CCN3CCC(CNC(=O)c4ccc(-c5ccc(C#N)cc5)cc4)CC3)CC2)c2ccccc21 [TCMDC-138854] | 1.26 | 2.93 |  | 3700 | 433
Nc1c2ccccc2nc2ccc(-c3ccccc3)cc12 [TCMDC-132030] | 7 | 0.49 | 0.485 | 3300 | 140
CC(C)CNCc1cccc(-c2cccc(CN(CCCN3CCN(C)CC3)C(=O)/C=C/c3ccccc3)c2)c1 [TCMDC-140541] | 13 | 0.56 | 0.557 | 7470 | 926
CN1CCN(CCCN(Cc2cccc(-c3cccc(CNC4CCCC4)c3)c2)C(=O)/C=C/c2ccccc2)CC1 [TCMDC-140543] | 9 | 0.8 | 0.805 | 7170 | 777
C#CCCOc1ccc2ccccc2c1CNCCCCCCNCc1c(OCCC#C)ccc2ccccc12 [TCMDC-137832] | 14 | 0.41 | 0.405 | 5500 | 811

Compound | Ratio IC50 HepG2/IC50 P. falciparum [1] | IC50 [1, 4] [µM] | IC50 [1, 5] [µM] | IC50 [2] [nM] | IC50 [3] [nM]
COc1cccc(OC)c1CN1CCC(N(C)CCCCCCCCCN2CCC(OC(=O)Nc3ccccc3-c3ccccc3)CC2)CC1 [TCMDC-134690] | <6 | 0.26 | 0.255 | < 1560 | 319
CC(Cc1ccc(CNC(=O)NCc2ccc(CC(C)NCCc3cccc(Cl)c3)cc2)cc1)NCCc1cccc(Cl)c1 (stereo not drawn) [TCMDC-139648] | 7 | 0.61 |  | 4180 | 685
COc1c(OC)c(OC)c2ccccc2c1CNCCCCCCNCc1c(OC)c(OC)c(OC)c2ccccc12 [TCMDC-137827] | 2.79 | 1.15 | 1.15 | 3200 | 759
CCn1c(-c2nonc2N)nc2c(-c3cccc(NC(=O)Nc4cccc(Cl)c4)c3)ncc(OCCCN)c21 [TCMDC-136193] | 7 | 2.17 | 2.17 | 14500 | 941
COc1ccccc1CCNc1nc(C)cc(N[C@@H](Cc2ccccc2)C(=O)NCCOc2ccccc2)n1 [TCMDC-134862] | <1 | > 10 |  | 11100 | 1210
O=S(=O)(NCCN1CCCC1)c1cccc(-c2ccc(CNCc3ccc(F)cc3)cc2)c1 [TCMDC-132289] | 2.75 | 2.69 |  | 7400 | 234
C[C@H](Cc1ccc(CCc2ccc(C[C@@H](C)NC[C@H](O)c3cccc(Cl)c3)cc2)cc1)NC[C@H](O)c1cccc(Cl)c1 [TCMDC-131551] | 12 | 0.27 | 0.267 | 3100 | 935
O=C(Nc1ccc(F)c(C(F)(F)F)c1)NC1CCN(CCCCCNC(=O)C2CC2c2ccc(Cl)c(Cl)c2)CC1 (stereo not drawn) [TCMDC-136259] | 1.47 | 4.35 |  | 6400 | 663
CSc1ccc2ccccc2c1CCNCCCCNCCc1c(SC)ccc2ccccc12 [TCMDC-137763] | 7 | 0.23 |  | 1650 | 408
O=C(c1cccs1)N(Cc1cccc(-c2ccc(CNC3CCCC3)cc2)c1)C1CCN(Cc2ccccc2)CC1 [TCMDC-140567] | 8 | 0.85 | 0.845 | 7100 | 1130
COc1cc2ccccc2c(OC)c1CNCCCCCCNCc1c(OC)cc2ccccc2c1OC [TCMDC-137843] | 13 | 0.32 | 0.319 | 4250 | 988
COc1cc2ccccc2c(OC)c1CCNCCCCNCCc1c(OC)cc2ccccc2c1OC [TCMDC-137842] | 10 | 0.31 | 0.305 | 3200 | 891
CCn1c(-c2nonc2N)nc2c(-c3cccc(NC(=O)Nc4cccc(C#N)c4)c3)ncc(OCCCN)c21 [TCMDC-136195] | 7 | 3.51 | 3.52 | 24700 | 669
COc1cc2ccccc2cc1OCCCN1CCN(CC(c2ccc(F)cc2)N2CCN(C(C)C)CC2)CC1 (stereo not drawn) [TCMDC-135496] | 3 | 1.25 | 1.25 | 3720 | 749
CN(C)CCNCc1ccc(-c2ccc3c(Nc4ccc(Oc5ccccc5)cc4)ccnc3c2)o1 [TCMDC-138399] | 23 | 0.33 | 0.325 | 7570 | 280
CN1CCN(CCCN(Cc2cccc(-c3ccc(CNCCc4ccccc4)cc3)c2)C(=O)c2cccs2)CC1 [TCMDC-140568] | 6 | 0.89 |  | 5600 | 716
CC(CCCC(=O)Nc1ccc(CC(C)NCCc2cccc(Cl)c2)cc1)NCCc1cccc(Cl)c1 (stereo not drawn) [TCMDC-139798] | 5.52 | 0.82 | 0.815 | 4500 | 625
CCN=C1NC2=C(CC(C(C)(C)C)CC2)C2(CCC(C(C)(C)C)CC2)S1 (stereo not drawn) [TCMDC-131288] | 5 | 3 |  | 14300 | 834
CCc1c(CCNCCCCCCNC(C)Cc2ccc3c(c2CC)OCO3)ccc(OC)c1OC (stereo not drawn) [TCMDC-132052] | 10 | 0.33 | 0.325 | 3100 | 870
COc1ccc(C[C@H]2NC[C@H](O)[C@H]2OC(C)=O)cc1 [TCMDC-125504] | 1.1 | 0.17 | 0.173 | 190 | 138
CN1CCCN(Cc2cccc(-c3ccc(NS(=O)(=O)c4cccc5cccnc45)cc3)c2)CC1 [TCMDC-136481] | <1 | > 10 |  | 6500 | 957
